# Measured values: US5608095A, “Alkyl-4-silyl-phenols and esters thereof as antiatherosclerotic agents” (Hoechst Marion Roussel, Inc., priority 1996, dated 1997)
# Read-outs that look alike come from different tables or passages of the source.
# Legend:
# [1] = system: oxidation of serum lipids; experiment: TBARS assay, rat serum; type: in vivo, male Sprague-Dawley rats; settings: po, 96 h, rat serum, 4 days, read-out: TBARS, percent of control
# Summary of the method: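 Male Sprague-Dawley rats (50–100 g) were fed compound as a 0.3% or 0.1% dietary admixture for 4 days, and serum was taken from non-fasted rats on day 5. Serum was oxidised with 5 mmol CuSO4 solution at 37 °C for 3 h, then reacted with TBA at 90 °C for 30 min. A540 was converted to nmol MDA by standard curve and compared against untreated-rat serum.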
# [2] = system: oxidation of lipids; experiment: Conjugated diene determination, rat serum; type: in vivo, male Sprague-Dawley rats; settings: pooled rat serum, diet 0.1%, 4 days, mean of 2 determinations
# Text: A typical experiment consisted of 4-6 groups of rats (N=5 per group) with 1 group being a control which received no MDL compound and the other groups being treated with 0.3% MDL compound. Some of the compounds were either repeated at 0.3% or evaluated again at the lower dose of 0.1%. Male Sprague-Dawley rats, 50-100 g, (Harlan Laboratories, Indianapolis, Ind.) were housed in groups of 5, fed ad libitum water and Purina Rodent chow (#5002) with or without MDL compound as a dietary admixture for 4 days. Dietary admixtures (0.3%) were made by mixing 1.2 grams of an MDL compound with 400 grams of Purina rodent chow (#5002). The MDL compound was mixed with approximately 50 grams of food using a mortar and pestle. This was added to the remainder of the food and mixed for 3 hours on a rotary mixer. In the morning of day 5, non-fasted rats were anesthetized with carbon dioxide, and blood was collected by cardiac puncture. Rats were sacrificed by cervical dislocation. Body weights and liver weights were recorded in grams. Food consumption was recorded as grams.cndot.day^-1.cndot.rat^-1. Deaths were recorded as mortality. Aliquots of fresh serum were used for clinical chemistries, thiobarbituric acid reactive substances (TBARS) and conjugated diene measurements. Aliquots of serum (~0.5mL) and whole livers were frozen at -20° C. for compound and metabolite concentration determination at a later time.
# Conjugated diene lag phase is another indicator of the oxidation of lipids. Lipids exposed to Cu^++ form conjugated dienes that absorb ultraviolet light in the range of 230 to 235 nm. The lag phase of diene formation gives an indication of the amount of oxidation of the lipids. A lag phase longer than control samples indicate inhibition of the oxidation. Conjugated diene lay phase was determined using a Varian DMS200 spectrophotometer (fitted with a constant temperature, 5 cuvette sample changer) at 30° C. Twenty (20) μL of pooled serum were added to cuvettes containing 3.0 mL phosphate buffered saline, pH 7.5, and mixed. The absorbances of all cuvettes were measured, and the instrument baseline was set to zero using the lowest absorbing sample. Next, 100 μL of 1 mmol CuSO4 were added and immediately mixed. The absorbance of each cuvette was recorded at 2 min intervals for a period of 840 min. The data were captured and transferred to a Microsoft EXCEL® spreadsheet where the curves were smoothed and differentials obtained. Lag times were determined mathematically as minutes. Serum samples were pooled (N=5); data presented are the mean values of 2 determinations. Serum samples from treated rats were compared to serum samples from control rats that received no MDL compound.
# [3] = Animal parameters (food, body weight, liver weight, mortality) in rats; type: in vivo, male Sprague-Dawley rats; settings: 4 days; for mortality at 96 h: in vivo, po, read-out: mortality (deaths per group); for mortality at 96 h / body wt., percent of control / lw/bw (liver weight/body weight), percent of control: rat
# Summary of the method: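 Male Sprague-Dawley rats (50–100 g, n=5/group) received compound as a 0.3% or 0.1% dietary admixture for 4 days, alongside an untreated control group. On day 5, non-fasted rats were bled and killed. Body weight, liver weight, food intake (g·day⁻¹·rat⁻¹) and mortality were recorded.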
# [4] = system: serum cholesterol, LDL, HDL, triglycerides; experiment: Serum lipids and lipoprotein cholesterol in cholesterol-fed female New Zealand White rabbits; type: in vivo; settings: Oryctolagus cuniculus, po, 168 h, rabbit serum, diet 0.4%, 7 days
# Summary of the method: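 Female New Zealand White rabbits fed 0.2% cholesterol chow sprayed with 0.4% compound (some at 0.26% or 0.6%) for 7 days (0.6% arm, 14 days). Fasted serum: total cholesterol and triglycerides enzymatically (mg/dL); VLDL/LDL/HDL separated by Sepharose 6HR gel-filtration HPLC, post-column cholesterol reagent at 37 °C, A500.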
compound,measurement,setting,value
"CN(C)c1ccc([Si](C)(C)COc2cc(C(C)(C)C)c(O)c(C(C)(C)C)c2)cc1 [MDL 104,556, 2,6-Di-t-butyl-4-[(4-N,N-dimethylaminophenyldimethylsilyl)methyloxy]phenol]",response vs control in vivo at 0.1 %,[1]; diet 0.1%,61%
same,response vs control in vivo at 0.3 %,[1]; diet 0.3%,34%
same,CONJ. DIENE (conjugated diene lag phase),[2],200 min
same,"food (grams eaten per day per rat), percent of control",[3]; diet 0.1%,102%
same,"food (grams eaten per day per rat), percent of control",[3]; diet 0.3%,68%
same,mortality at 96 h,[3]; diet 0.1%,0%
same,mortality at 96 h,[3]; diet 0.3%,0%
same,"body wt., percent of control",[3]; diet 0.1%,103%
same,"lw/bw (liver weight/body weight), percent of control",[3]; diet 0.1%,106%
same,"body wt., percent of control",[3]; diet 0.3%,87%
same,"lw/bw (liver weight/body weight), percent of control",[3]; diet 0.3%,120%
same,response vs control in vivo at 0.4 %,"[4]; read-out: HDL cholesterol, percent of control",116%
same,response vs control in vivo at 0.4 %,"[4]; read-out: LDL cholesterol, percent of control",53%
same,response vs control in vivo at 0.4 %,"[4]; read-out: TRIG (triglycerides), percent of control",81%
same,response vs control in vivo at 0.4 %,"[4]; read-out: chol tot. (total cholesterol), percent of control",47%
